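Cells were grown in 96-well plates and exposed to each compound for 48 hours at five concentrations; endpoints were interpolated linearly between bracketing concentrations, or set to the highest concentration if not reached. GI50 is the concentration that inhibits growth by half. At the TGI there is no net growth.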
How the values were obtained:
Assay in all cases: inhibition of tumour cell growth, NCI panel, 48 h
HOP-62 NSCLC = test system: HOP-62 NSCLC
IGROV1 ovarian = test system: IGROV1 ovarian
KM12 colon = test system: KM12 colon
HCT-15 colon = test system: HCT-15 colon
CCRF-CEM leukemia = test system: CCRF-CEM leukemia
SNB-75 CNS = test system: SNB-75 CNS
SK-MEL-5 melanoma = test system: SK-MEL-5 melanoma
NCI/ADR-RES ovarian = test system: NCI/ADR-RES ovarian
SF-539 CNS = test system: SF-539 CNS
HCT-116 colon = test system: HCT-116 colon
SW-620 colon = test system: SW-620 colon

Row | SMILES | TGI (HOP-62 NSCLC) [µM] | TGI (IGROV1 ovarian) [µM] | TGI (KM12 colon) [µM] | TGI (HCT-15 colon) [µM] | TGI (CCRF-CEM leukemia) [µM] | TGI (SNB-75 CNS) [µM] | TGI (SK-MEL-5 melanoma) [µM] | TGI (NCI/ADR-RES ovarian) [µM] | TGI (SF-539 CNS) [µM] | TGI (HCT-116 colon) [µM] | TGI (SW-620 colon) [µM] | GI50 (IGROV1 ovarian) [µM] | GI50 (SF-539 CNS) [µM] | GI50 (KM12 colon) [µM] | GI50 (HCT-15 colon) [µM] | GI50 (CCRF-CEM leukemia) [µM] | GI50 (SW-620 colon) [µM] | GI50 (SNB-75 CNS) [µM] | GI50 (SK-MEL-5 melanoma) [µM] | GI50 (NCI/ADR-RES ovarian) [µM]
1 | COc1ccc2c(c1)C(=O)/C(=C/c1ccccc1)C2 | > 100 | > 100 | > 100 | > 100 | > 100 | > 100 | > 100 | 88.2 | – | – | – | – | – | – | – | – | – | – | – | –
2 | COc1cc(CN(C)N2C(=O)c3cccc4cc([N+](=O)[O-])cc(c34)C2=O)cc(OC)c1OC | 51.9 | > 100 | > 100 | > 100 | > 100 | 60.1 | > 100 | > 100 | – | – | – | – | – | – | – | – | – | – | – | –
3 | O=C(NC/C=C/CO)c1ccccc1 | > 100 | > 100 | > 100 | > 100 | > 100 | > 100 | > 100 | > 100 | > 100 | > 100 | > 100 | – | – | – | – | – | – | – | – | –
4 | CCCCN(CCCC)C1(c2cc3ccccc3s2)CCCCC1 | 29.2 | 31.2 | 30.4 | 30.8 | 28.7 | 30.5 | 40.7 | 34 | 34.9 | 23.7 | 33.8 | – | – | – | – | – | – | – | – | –
5 | C=C1CC2(C)CCC(OC(=O)C3(C)OC3C)C(C)(OC(C)=O)C2CC1=C(C)C (stereo unspecified) | > 100 | > 100 | > 100 | > 100 | > 100 | > 100 | > 100 | > 100 | > 100 | > 100 | > 100 | – | – | – | – | – | – | – | – | –
6 | CCC1CN2CCc3cc(OC)c(OC)cc3C2CC1CC1c2cc(OC)c(OC)cc2CCN1C(=O)C(Cc1c[nH]c2ccccc12)NC(=O)OC(C)(C)C (stereo unspecified) | 14.5 | 4.25 | 11 | 7.35 | 15.7 | 10.8 | 3.08 | 3.02 | 4.43 | 5.78 | 9.03 | – | – | – | – | – | – | – | – | –
7 | O=C(O)CSc1nc2ccccc2[nH]1 | > 100 | > 100 | > 100 | > 100 | – | > 100 | – | > 100 | – | > 100 | > 100 | – | – | – | – | – | – | – | – | –
8 | CC12CCC3C(CCC4(O)C=CCCC34C=O)C1(O)CC(O)C2c1ccc(=O)oc1 (stereo unspecified) | 0.0954 | 0.35 | 0.367 | 0.178 | 10.1 | 0.246 | 0.0887 | 0.282 | 0.0735 | 0.22 | 0.222 | – | – | – | – | – | – | – | – | –
9 | O=C1CNC(=O)N1 | > 1120 | > 1120 | > 1120 | > 1120 | > 954 | > 1120 | > 1120 | > 1120 | > 1120 | > 1120 | > 1120 | – | – | – | – | – | – | – | – | –
10 | Cc1ccc(NCCO)cc1 | > 100 | > 100 | > 100 | > 100 | > 100 | > 100 | > 100 | – | > 100 | > 100 | > 100 | – | – | – | – | – | – | – | – | –
11 | CCOC(=O)C(CC(C)C)NC(=O)C(N)Cc1ccc(N(CCCl)CCCl)cc1 (stereo unspecified) | 22 | 31.6 | 20.1 | 11.5 | 13 | 15.9 | 19.8 | – | 9.59 | 17.9 | 35.7 | – | – | – | – | – | – | – | – | –
12 | CCNc1nc2c(=O)n(C)c(=O)n(C)c2s1 | > 100 | > 100 | > 100 | > 100 | > 100 | > 100 | – | – | > 100 | > 100 | > 100 | – | – | – | – | – | – | – | – | –
13 | CCOC(=O)c1csc(NC(=O)CCN2CCOCC2)n1 | > 100 | > 100 | – | > 100 | > 100 | – | > 100 | > 100 | > 100 | – | > 100 | – | – | – | – | – | – | – | – | –
14 | Nc1ccc(N=Nc2ccc(-c3ccc(N=Nc4c(S(=O)(=O)O)cc5cc(S(=O)(=O)O)c(N=Nc6ccc([N+](=O)[O-])cc6)c(N)c5c4O)cc3)cc2)c2cc(S(=O)(=O)O)ccc12 | > 100 | > 100 | > 100 | > 100 | > 100 | > 100 | > 100 | – | > 100 | > 100 | > 100 | – | – | – | – | – | – | – | – | –
15 | NCCSC1(O)C(=O)c2ccccc2-c2ccccc21 (stereo unspecified) | 3.22 | 3.73 | 3.33 | 2.54 | 6.82 | 2.4 | 1.34 | 1.4 | 2.67 | 1.04 | 3.16 | – | – | – | – | – | – | – | – | –
16 | COc1ccc(-c2nnc3c4ccccc4sn23)cc1 | > 100 | > 100 | > 100 | > 100 | 33.7 | 87.3 | > 100 | – | > 100 | > 100 | > 100 | – | – | – | – | – | – | – | – | –
17 | Fc1cc(C2=Nn3c(nnc3-c3cc(F)c(Cl)cc3Cl)SC2)c(Cl)cc1Cl | – | > 100 | 86.8 | 70.2 | > 100 | > 100 | 30.3 | > 100 | 38 | – | 47.2 | 29.8 | 18.9 | 28.5 | 20.2 | 22 | 22.6 | 26.2 | 13.4 | 27.4

Source: PubChem BioAssay (NCI)
